Laboratory results as given in patent US20130337453A1, “EXTRACELLULAR MITOCHONDRIA-BASED SCREENING AND TREATMENT” (TUFTS UNIVERSITY, priority 2010, published 2013).
Entries after “also recorded” stand apart in the source; their conditions may differ.

Tests used:
LAD2 cells [1] = assay: Mitochondria-induced degranulation (beta-hex release) after P2X7 receptor inhibitor pre-treatment; assay type: cell-based, human; conditions: pre-incubation 30 min; beta-hex release 30 min after stimulation
Procedure: FIG. 10 illustrates that mt component activation of LAD2 cells is P2X7-receptor-dependent. LAD2 cells were pre-treated with P2X7 receptor inhibitor for 30 min and then stimulated with mt components. Different concentration of CpG-ODN [ISOLATED fomyl-peptides?] was used to stimulated LAD2 cells (FIG. 10A). LAD2 cells were treated with a P2X7 receptor inhibitor (FIG. 10B). Beta-hex release was measured 30 mins after stimulation. (n=3; *p<0.05, compared to control). FIG. 10C: live LAD2 cells were stained with stained with Fura-2to measure intracellular calcium changes in response to different concentrations of mt components.
We then investigated which components from sonicated mitochondria may activate LAD2 cells. ATP has been reported to stimulated human mast cell degranulation (Cohen et al., 2001, Biochemistry 40:6589-97). Therefore, we tested if inhibition of P2X7 receptors, the primary receptor of ATP, can block the effects of mitochondrial components.

[2] = tested on: isolated cardiac cell mitochondria; conditions: SP concentrations higher than 1 μM; cited from earlier work
LAD2 cells [3] = assay: ATP and Cytochrome C in supernatant fluid of stimulated cells; assay type: cell-based, human; conditions: SP-stimulated LAD2 cells
LAD2 cells [4] = conditions: SP 1 or 2 μM for 30 min (Kulka 2007); cited from earlier work
LAD2 cells [5] = assay: mtDNA (Mt-7s, Mt-CytB) in supernatant fluid by real-time PCR; assay type: cell-based, human; conditions: 10 μM SP, 60 minutes
Procedure: Cell viability (D) was measured by Tulubin-Blue staining.
The amount of these two genes, MT-7s DNA and MT-CytB, which are unique to mtDNA and not present in regular human genomic DNA, increased 200 times in SP-stimulated cells (10 μM SP) compared with that in the control as detected by real-time PCR (FIG. 7A). In contrast, genomic DNA for glyceraldehyde 3-phosphate dehydrogenase (GAPDH) is not detected (Hu, VIC TAMRA, data not shown).

Drp1 = assay: Western blot of Drp1 phosphorylation at Ser-616; assay type: cell-based, human; conditions: SP 2 μM for 30 min, LAD2 mast cells
Description: Antibodies against the Ser-616 phosphorylated form of Drp1 was purchased from Cell Signaling based in Massachusetts, USA.
To confirm the involvement of Drp1, the State of phosphorylation of Drp1 at the amino acid serine-616 (Ser-616) was investigated through western blot analysis.

human skin mast cells [6] = assay: Transmission electron microscopy of mitochondria in skin mast cells; assay type: cell-based
Description: Mitochondria are shown within white rectangles. White asterisks represent released granular materials. FIG. 5B charts the number of mitochondria visible under electron microscope and FIG. 5C charts the percentage of mitochondria close to the cell surface in each cell as semi-quantitated from high magnification glossy prints by three independent operators. Magnification: 13,800×; (n=3; *p<0.05 compared to control).
Observations using Transmission Electron Microscopy (TEM) (Theoharides, et al. 1998, Endocrinology 139:403-13) indicate translocation of mitochondria particles to sites of exocytosis. Mitochondria of unstimulated human skin mast cells are located around the cell nucleus and appear intact (FIG. 5A, left side). On the contrary, mitochondria of activated mast cells are much smaller than mitochondria from control cells and are located close to secretory granules undergoing exocytosis (FIG. 5A, right side).

[7] = tested on: murine mast cell line and isolated murine peritoneal mast cells; conditions: SP 0.01 to 1 μM; not IL-1, IL-3, IL-4, IL-6 or GM-CSF; cited from earlier work
LAD2 cells [8] = assay: Mitochondrial translocation in live mast cells by confocal microscopy (MitoTracker/LysoTracker); assay type: cell-based, human
Procedure: LAD2 cells, mast cells derived from a human leukemia patient,were stained with MitoTracker probe (20 nM) for 20 min (middle panels) and LysoTracker DND probe (50 nM) for 30 min (left panels). The cells were then moved to glass bottom culture dishes and observed by TSC SP2 Confocal microscopy. […] The left panels show granules in green. The middle panels represent mitochondria florescence. The right panels represent images merged from the two previous panels. […] Merged images (as described above) of 100 cells randomly selected from each experiment (n=3) are scored by three different operators each time. […] Confocal images from 19 resting cells and 20 degranulating cells (SP 2 μM, 30 min) were randomly selected for analysis. Mitochondria numbers were calculated by ImageJ software using a “mitochondria calculator” plugin.
(§1) FIG. 2 illustrates that SP-stimulated degranulation and pre-stored TNF secretion is blocked by the mitochondrial fission protein Drp1 inhibitor (MDIVI-1) and Drp1-silencing siRNA. LAD2 cells were treated with MDIVI-1 (40 μM) for 15 min at 37° C. FIG. 2A: Mitochondrial morphology was evaluated by Confocal microscopy in normal LAD2 cells with or without stimulation with SP (2 μM, 30 min, 37° C.). Left panels represent granules; middle panels show mitochondria and the right panels are merged from the previous two. The images shown are representative of more than 40 cells studied. […] LAD2 cells were pretreated with MDIVI-1 (40 μM) for 30 min and then stimulated with SP (1 or 2 μM) for 30 min at 37° C. β-hexosaminidase was measured spectrophotometrically and TNF was measured by ELISA.
Very few mitochondria could be found in the cell surface region. It is almost impossible to distinguish individual mitochondria from this pool by confocal microscopy. Since the average pH of mast cell secretory granules is 5.5, LysoTracker (left panels) was used as a dye to stain the granules. After SP (2 μM) stimulation for 30 min at 37° C., mast cells underwent rapid degranulation, during which mitochondrial particles translocate throughout the cell (FIG. 1A). […]

human skin mast cells [9] = conditions: cited from earlier work
rat mast cells = rat mast cells (Sengoku 2000); cited from earlier work
mouse model of AD = mouse model of AD (Inagaki 2010); cited from earlier work
[10] = tested on: peripheral sensory neurons; conditions: Inagaki 2010; cited from earlier work
LAD2 cells [11] = assay: Pre-stored TNF secretion measured by ELISA; assay type: cell-based, human; conditions: MDIVI-1 40 μM pretreatment; SP 1 and 2 μM, vs SP alone
Procedure: as §1
(§2) In order to rule out the possibility that mitochondrial translocation at the cell surface is a bystander effect secondary to cell shape changes during degranulation, the function of Drp1 in mast cell degranulation was investigated. Pretreatment of LAD2 mast cells with the mitochondria] Drp1 inhibitor MDIVI-1 at 40 μM for 15 min at 37° C. (Cassidy-Stone, et al. 2008, Dev. Cell 14:193-204) inhibited mitochondrial translocation (FIG. 2A) despite addition of SP (2 μM for 30 min).

LAD2 cells [12] = assay: SP-triggered beta-hexosaminidase release (degranulation index); assay type: cell-based, human; conditions: MDIVI-1 40 μM pretreatment; SP 1 and 2 μM, vs SP alone
Procedure: as §1, §2

SMILES: Cl.Clc1cccc(-c2nnnn2Cc2cccnc2)c1Cl.O [A-438079 hydrochloride hydrate]
- block of mitochondria-induced degranulation (LAD2 cells [1]): 40%

SMILES: CSCC[C@H](NC(=O)[C@H](CC(C)C)NC(=O)CNC(=O)[C@H](Cc1ccccc1)NC(=O)[C@H](Cc1ccccc1)NC(=O)[C@H](CCC(N)=O)NC(=O)[C@H](CCC(N)=O)NC(=O)[C@@H]1CCCN1C(=O)[C@H](CCCCN)NC(=O)[C@@H]1CCCN1C(=O)[C@@H](N)CCCNC(=N)N)C(N)=O [SP, Substance P]
- rate of oxygen consumption [2]: enhance
- Cytochrome C (Cyt C) in supernatant fluid (LAD2 cells [3]): marked increase
- ATP level in supernatant fluid (LAD2 cells [3]; dosage-dependent on SP): marked increase
- degranulation of pre-stored TNF (LAD2 cells [4]): activates degranulation
- amount of MT-7s DNA and MT-CytB in supernatant, increase vs control (LAD2 cells [5]): 200 times
- Drp1 phosphorylation at Ser-616 (Drp1): Drp1 phosphorylation
- number of mitochondria visible under the electron microscope (human skin mast cells [6]; SP-activated skin mast cells vs control): increased significantly
- percentage of mitochondria translocated close to cell surface (human skin mast cells [6]; SP-activated skin mast cells, control 25%): 75%
- increase in percentage of mitochondria translocated close to cell surface (human skin mast cells [6]; SP-activated vs control (25% to 75%)): 200%
- gene expression and release of cytokines [7]: induce selective gene expression and release of TNF
- percentage of LAD2 cells containing mitochondria undergoing translocation (LAD2 cells [8]; SP 2 μM, 30 min, 37° C., 20% in control cells): about 55%
- number of mitochondria close to the cell surface (LAD2 cells [8]; after SP stimulation (2 μM, 30 min), ImageJ count): significant increase
- de novo TNF gene expression and release (human skin mast cells [9]; SP 0.3-30 μM (Okayama 1998)): selectively induced only de novo TNF gene expression and release
- histamine and TNF release (human skin mast cells [9]; SP 0.8-100 ηM): induced histamine and de novo synthesized TNF release

SMILES: C=CC[C@@H]1/C=C(\C)C[C@H](C)C[C@H](OC)[C@H]2O[C@@](O)(C(=O)C(=O)N3CCCC[C@H]3C(=O)O[C@H](/C(C)=C/[C@@H]3CC[C@@H](O)[C@H](OC)C3)[C@H](C)[C@@H](O)CC1=O)[C@H](C)C[C@@H]2OC [FK506, tacrolimus]
- secretion of IgE-induced histamine (rat mast cells): inhibit
- pruritus (mouse model of AD): prevent
- SP content of peripheral sensory neurons [10]: deplete

SMILES: COc1cc(-n2c(=S)[nH]c3ccccc3c2=O)c(Cl)cc1Cl [MDIVI-1]
- secretion of pre-stored TNF (LAD2 cells [11]): significantly inhibited
- mitochondrial translocation (LAD2 cells [8]; MDIVI-1 40 μM pretreatment 15 min, 37° C., SP 2 μM for 30 min): inhibited
- SP-triggered β-hexosaminidase release (LAD2 cells [12]): significantly inhibited; also recorded: significant inhibition
